In general, pIC50 refers to −log10 of the IC50, conventionally taken in molar units.

The results in this text go back to ChEMBL document CHEMBL4814061, “Novel Azaquinolones as PARP1 Inhibitors for Treating Cancer” (ACS Med Chem Lett, 2021).

pIC50: −log10 of the molar value.

The experiment addresses Poly [ADP-ribose] polymerase 1 (Homo sapiens, UniProt P09874). The experiment is described as follows: Inhibition of recombinant full length 6His-tagged PARP1 (unknown origin) incubated for 4 hrs by fluorescence anisotropy assay. Background: Fluorescence polarisation rises when a labelled molecule tumbles more slowly, as on binding a larger partner.

Poly [ADP-ribose] polymerase 1, sequence (P09874 whole entry): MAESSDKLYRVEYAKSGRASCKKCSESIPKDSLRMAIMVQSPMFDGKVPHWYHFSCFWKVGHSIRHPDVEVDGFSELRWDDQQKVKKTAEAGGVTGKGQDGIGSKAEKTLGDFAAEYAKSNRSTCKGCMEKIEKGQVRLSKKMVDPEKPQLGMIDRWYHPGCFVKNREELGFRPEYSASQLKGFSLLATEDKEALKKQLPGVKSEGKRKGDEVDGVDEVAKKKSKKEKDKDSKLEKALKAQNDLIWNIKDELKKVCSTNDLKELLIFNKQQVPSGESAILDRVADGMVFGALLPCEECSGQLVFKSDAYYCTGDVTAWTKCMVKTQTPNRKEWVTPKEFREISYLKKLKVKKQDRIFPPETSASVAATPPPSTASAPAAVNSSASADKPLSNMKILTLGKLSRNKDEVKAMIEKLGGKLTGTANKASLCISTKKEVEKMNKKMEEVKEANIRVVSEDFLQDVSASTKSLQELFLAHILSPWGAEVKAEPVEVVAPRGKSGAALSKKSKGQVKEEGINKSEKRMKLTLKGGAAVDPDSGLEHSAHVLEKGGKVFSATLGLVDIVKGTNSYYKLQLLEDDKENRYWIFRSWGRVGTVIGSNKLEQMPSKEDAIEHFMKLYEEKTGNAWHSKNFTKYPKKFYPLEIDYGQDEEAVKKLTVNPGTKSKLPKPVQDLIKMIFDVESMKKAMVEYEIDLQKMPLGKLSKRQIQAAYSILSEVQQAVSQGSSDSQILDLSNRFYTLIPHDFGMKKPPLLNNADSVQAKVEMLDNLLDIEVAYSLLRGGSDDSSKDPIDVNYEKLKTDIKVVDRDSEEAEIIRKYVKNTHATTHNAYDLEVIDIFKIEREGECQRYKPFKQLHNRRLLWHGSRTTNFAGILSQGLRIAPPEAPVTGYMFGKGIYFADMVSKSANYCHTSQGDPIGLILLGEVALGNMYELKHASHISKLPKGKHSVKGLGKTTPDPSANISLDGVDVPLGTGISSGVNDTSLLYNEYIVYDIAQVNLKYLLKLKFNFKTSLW

As for `CNC(=O)c1ccc(N2CCN(Cc3cc4[nH]c(=O)c(CCF)cc4cn3)CC2)cn1`, the pIC50 was 8.70.
Consider `CCc1cc2cnc(CN3CCN(c4ccc(C(=O)NC)nc4Cl)CC3)cc2[nH]c1=O`, for which the pIC50 is 8.52.
`CNC(=O)c1ccc(N2CCN(Cc3cc4[nH]c(=O)c(CC(F)F)cc4cn3)CC2)c(F)n1`: the pIC50 is 8.52.
In the case of `CCc1cc2cnc(CN3CCN(c4ccc(C(=O)NC)nc4F)CC3)cc2[nH]c1=O` it was 8.70; in that of `CCc1cc2cnc(CN3CCN(c4ccc(C(N)=O)nc4)CC3)cc2[nH]c1=O`, 8.70.
